Measurements: patent EP0557876A1, “Use of xanthine derivatives for the treatment of muscle damage subsequent to complete interruption of blood circulation” (HOECHST AKTIENGESELLSCHAFT, priority 1992, dated 1993)
Marks after values point to notes of the source that are not given here.

System: Muskelfasern
Assay: Muscle fibre diameter after 3 h tourniquet interruption of blood circulation in a hind limb and subsequent reperfusion
Format: in vivo, Cercopithecus pygerythrus
Parameters: durchschnittliche Durchmesser Muskelfaser Typ1 / durchschnittliche Durchmesser Muskelfaser Typ2a: unit not given here
Procedure: Zwei Gruppen von acht erwachsenen, männlichen südafrikanischen Meerkatzen (Cercopithecus pygerythrus) werden untersucht. Die Anasthäsie der Tiere erfolgt intramuskulär mit 15 mg/kg Ketamin (Warner Lambert) und wird intravenös mit Thiopenton Natrium (25 mg/kg, May und Baker) aufrecht erhalten. Eine hintere Extremität wird durch eine pneumatische Abschnürbinde und eine Esmarch Bandage blutleer gemacht. Die Unterbrechung der Blutzirklation wird drei Stunden aufrechterhalten, dann wird die Unterbrechung beendet und die Tiere können aus der Betäubung aufwachen. Die Entnahme der Muskelgewebeproben erfolgt unter Betäubung (15 mg/kg Ketamin).
20 mg/kg Verbindung 1 wird intravenös über 30 Minuten den Tieren appliziert bevor die Unterbrechung der Blutzirkulation erfolgt.
Das entnommene Muskelgewebe wird sofort in Isopentan bei -183° C eingefroren. Die Präparation des Muskelgewebes erfolgt wie bei Dubowitz (Dubowitz et al. Muscle Biopsy A practical Approach, London, Bailliere Tindall, 1985, S. 82 - 128) beschrieben. Mikroskopische Schnitte werden mit Muskelfaser-ATPase für 30 Minuten bei pH 9,4 gefärbt, eingebettet und im Lichtmikroskop untersucht. Die Durchmesser von wenigstens 200 Muskelfasern werden mit einem computerisierten Video-Image-Analysator ausgewertet.
Der durchschnittliche Durchmesser jedes Muskelfasertyps wird in Tabelle 1 beschrieben.

[1] = Unterbrechung der Blutzirkulation, lower part of Tabelle 1 (12/18/24 h series), 20 mg/kg i.v.
[2] = Unterbrechung der Blutzirkulation, upper part of Tabelle 1 (3/6 h series), 20 mg/kg i.v.
[3] = Vor Unterbrechung der Blutzirkulation, lower part of Tabelle 1 (12/18/24 h series), 20 mg/kg i.v. over 30 min before interruption
[4] = Vor Unterbrechung der Blutzirkulation, upper part of Tabelle 1 (3/6 h series), 20 mg/kg i.v. over 30 min before interruption

Compound: CCOCn1cnc2c1c(=O)n(CCCCC(C)(C)O)c(=O)n2C [Verbindung 1, 7-Ethoxymethyl-1-(5-hydroxy-5-methylhexyl)-3-methylxanthin]
- durchschnittliche Durchmesser Muskelfaser Typ1 (Nach 3 Stunden, 20 mg/kg i.v.): 39,89*
- durchschnittliche Durchmesser Muskelfaser Typ2a (Nach 3 Stunden, 20 mg/kg i.v.): 48,55*
- durchschnittliche Durchmesser Muskelfaser Typ1 (Nach 6 Stunden, 20 mg/kg i.v.): 43,42*
- durchschnittliche Durchmesser Muskelfaser Typ2a (Nach 6 Stunden, 20 mg/kg i.v.): 53,37*
- durchschnittliche Durchmesser Muskelfaser Typ1 (Nach 12 Stunden, 20 mg/kg i.v.): 35,79
- durchschnittliche Durchmesser Muskelfaser Typ2a (Nach 12 Stunden, 20 mg/kg i.v.): 42,28*
- durchschnittliche Durchmesser Muskelfaser Typ1 (Nach 18 Stunden, 20 mg/kg i.v.): 34,68
- durchschnittliche Durchmesser Muskelfaser Typ2a (Nach 18 Stunden, 20 mg/kg i.v.): 41,31
- durchschnittliche Durchmesser Muskelfaser Typ1 (Nach 24 Stunden, 20 mg/kg i.v.): 33,00
- durchschnittliche Durchmesser Muskelfaser Typ2a (Nach 24 Stunden, 20 mg/kg i.v.): 40,24
- durchschnittliche Durchmesser Muskelfaser Typ1 [1]: 33,21
- durchschnittliche Durchmesser Muskelfaser Typ2a [1]: 38,69
- durchschnittliche Durchmesser Muskelfaser Typ1 [2]: 36,28
- durchschnittliche Durchmesser Muskelfaser Typ2a [2]: 44,75
- durchschnittliche Durchmesser Muskelfaser Typ1 [3]: 36,50
- durchschnittliche Durchmesser Muskelfaser Typ2a [3]: 45,09
- durchschnittliche Durchmesser Muskelfaser Typ1 [4]: 36,50
- durchschnittliche Durchmesser Muskelfaser Typ2a [4]: 45,09
- Schwellung der Muskelfasern vom Typ 1 und 2a (nach 18 - 24 Stunden Wiederdurchblutung, 20 mg/kg i.v.): signifikant verringerte Schwellung
